The test system of data set [1] is S. aureus Smith. In words: In vitro antibacterial activity (MIC), S. aureus Smith. As to conditions: Staphylococcus aureus, 18 h.
The test system of data set [2] is S. aureus 53-180. In words: In vitro antibacterial activity (MIC), S. aureus 53-180. As to conditions: Staphylococcus aureus, 53180, 18 h.
Data set [3] has as its system P. vulgaris 6896. In words: In vitro antibacterial activity (MIC), P. vulgaris 6896. The following applies: Proteus vulgaris, 6896, 18 h.
Data set [4] has as its system E. coli 9637. In words: In vitro antibacterial activity (MIC), E. coli 9637. The following applies: Escherichia coli, 9637, 18 h.
Data set [5] is described as follows: Antimalarial blood schizonticidal test in mice. In kind it is in vivo, Plasmodium berghei (infected ICR/HA Swiss mice). Details: ΔMST (increase in mean survival time): unit: days. As to conditions: mouse, in vivo, sc, single dose, infected mice; highest dose with no deaths for any reason; read-out: Highest Non-Lethal Dose. From the text:
(§1) In addition, the invention provides compounds which have antimalarial activity in vivo as evidenced by a standard blood schizonticidal test in mice infected with Plasmodium berghei KBG 173.
(§2) Utilizing young ICR/HA Swiss mice and a standard inoculum of Plasmodium berghei KBG 173, it is possible to produce a uniform disease fatal to 100% of untreated animals within 6 to 8 days with a mean survival time of 6.2 days. Test animals weigh from 18 to 22 grams but weight variations in any given experimental or control group are confined to 2-3 grams. All animals in any given test are approximately of the same age. Animals on test are housed in metal-topped plastic cages, given a standard laboratory diet and water ad libitum.
(§3) Test animals receive an intraperitoneal injection of 0.5 ml. of 1:100 dilution of heparinized heart's blood with a minimum of 90% parasitized cells (4 × 10^7 cells), drawn from donor mice infected one week earlier with Plasmodium berghei. The donor strain is maintained by weekly passages in separate groups of mice inoculated with a 0.5 ml. of 1:500 dilution of heparinized heart's blood.
(§4) Test compounds are administered after dissolution or suspension in peanut oil. A single dose is given subcutaneously 72 hours after the mice are infected with Plasmodium berghei. At this time a 10-15 percent parasitemia has developed; the disease is well established but has not produced sufficient debility to alter the response of the host to toxic effects of the drug on test. Since treatment is withheld for three days to permit the infection to become well established and death occurs in untreated controls within 6-8 days, it is felt that this system presents a candidate compound with the maximum challenge. In order to check factors such as changes in the infectivity of Plasmodium berghei or in the susceptibility of the host or to detect technical errors, a group of infected animals treated with pyrimethamine at dose levels producing definite increases in survival time is included in a positive control in every experiment.
(§5) In each experiment test compounds are administered in graded dosages. […] However, if an active drug is toxic for the host, its toxicity may become a limiting factor; continued increases in dose levels also increase the toxic effects and may result in the diminution of survival times. Deaths prior to the sixth day, when untreated controls begin to die, are regarded as nonparasitic and become the basis for toxicity evaluations. […] In calculating mean survival time, toxic deaths and 60-day survivors are not included.
(§6) Compounds are considered active which produce a cure in at least one test animal or which produce significant increases in mean survival times of the treated animals as compared with the mean survival times of untreated controls, provided that no drug related deaths (toxicity) are noted at the active dose.

In data set [6] the test system is Plasmodium berghei KBG 173. Description: Antimalarial blood schizonticidal test in mice. In kind it is in vivo, Plasmodium berghei (infected ICR/HA Swiss mice). Details: ΔMST (increase in mean survival time): unit: days. The following applies: s.c.; for ED100 / minimal effective dose: Plasmodium berghei, sc, single dose; for ED100: read-out: Lowest Dose Curing All Mice; for minimal effective dose: read-out: Min. Curing Dose; for Cure/Treat at Min. Curing Dose: at the Min. Curing Dose.
Excerpt: as §1, §2, §3, §4, §5, §6

The subject of data set [7] is S. paratyphi 11737. In words: In vitro antibacterial activity (MIC), S. paratyphi 11737. In kind it is cell-based. As to conditions: Salmonella enterica, 18 h.
Data set [8] relates to K. pneumoniae 10031. In words: In vitro antibacterial activity (MIC), K. pneumoniae 10031. As to conditions: Klebsiella pneumoniae, 10031, 18 h.
In data set [9] the test system is N. catarrhalis 8193. In words: In vitro antibacterial activity (MIC), N. catarrhalis 8193. The following applies: 18 h.

In brackets after ≈: the same amount, converted by molar mass. Where two headings read alike, the source gives them in different places.

The MIC is the lowest concentration that inhibits growth of the organism. With `Nc1nc(N)c2c(ccc3c2ccn3Cc2ccc(Cl)c(Cl)c2)n1` [Example 10], the MIC worked out at 0.976 µg/mL (≈ 2.72 µM) in data set [1]; 0.488 µg/mL (≈ 1.36 µM) in data set [2]; 31.3 µg/mL (≈ 87.4 µM) in [3]; 3.9 µg/mL (≈ 10.9 µM) in [4]; 31.3 µg/mL (≈ 87.4 µM) in [7]; 0.488 µg/mL (≈ 1.36 µM) in data set [8]. The same compound gave a minimum inhibitory concentration (MIC) in [9] of 0.061 µg/mL (≈ 0.17 µM). Besides, the MTD in data set [5] came out at 40 mg/kg. Moreover, the ED100 in data set [6] (1440 h, 60-day survivors) was 10 mg/kg. The minimal effective dose in [6] (1440 h, 60-day survivors) worked out at 2.5 mg/kg. Also, the “Cure/Treat at Min. Curing Dose” value in data set [6] (60-day survivors) is recorded as 2/5. In [6] (dose 2.5 mg. per kg.), the “ΔMST (increase in mean survival time)” value came to 10.2.

On to `Nc1nc(N)c2c(ccc3c2ccn3Cc2ccccc2C(F)(F)F)n1` [Example 11], for which the MIC in data set [1] stood at 0.488 µg/mL (≈ 1.37 µM); in data set [2], 0.244 µg/mL (≈ 0.683 µM); in data set [3] it was 62.5 µg/mL (≈ 175 µM); in [4] it was 1.95 µg/mL (≈ 5.46 µM); in [7] it was 3.9 µg/mL (≈ 10.9 µM); in data set [8], 0.122 µg/mL (≈ 0.341 µM). In addition, in data set [9], the minimum inhibitory concentration (MIC) is under 0.0009 µg/mL. For the same compound, the MTD in data set [5] was 40 mg/kg. In addition, the ED100 in data set [6] (1440 h, 60-day survivors) was 10 mg/kg. For the same compound, in data set [6] (1440 h, 60-day survivors), the minimal effective dose came out at 1.25 mg/kg. For the same compound, in data set [6] (60-day survivors), the “Cure/Treat at Min. Curing Dose” value was 1/5. Moreover, in data set [6] (dose 0.63 mg. per kg.), the “ΔMST (increase in mean survival time)” value stood at 7.3.

For `N#Cc1ccccc1Cn1ccc2c3c(N)nc(N)nc3ccc21` [Example 14], the MIC came out at 0.244 µg/mL (≈ 0.776 µM) in data set [1]; 0.244 µg/mL (≈ 0.776 µM) in data set [2]; 1.95 µg/mL (≈ 6.2 µM) in [3]; 0.244 µg/mL (≈ 0.776 µM) in data set [4]; 0.488 µg/mL (≈ 1.55 µM) in data set [7]; 0.122 µg/mL (≈ 0.388 µM) in [8]. This compound came in with an MIC in [9] of 0.061 µg/mL (≈ 0.194 µM). Further, the MTD in [5] turned out to be 160 mg/kg. For the same compound, the ED100 in [6] (1440 h, 60-day survivors) was found to be 40 mg/kg. The minimal effective dose in data set [6] (1440 h, 60-day survivors) worked out at 10 mg/kg. Also, the “Cure/Treat at Min. Curing Dose” value in [6] (60-day survivors) is on record as 1/5. The “ΔMST (increase in mean survival time)” value in data set [6] (dose 10 mg. per kg.) came out at 8.9.

For the compound `Nc1nc(N)c2c(ccc3c2ccn3-c2ccccc2[N+](=O)[O-])n1` [Example 76], the minimal inhibitory concentration (MIC) in data set [1] is 0.244 µg/mL (≈ 0.762 µM); in data set [2] it was 0.244 µg/mL (≈ 0.762 µM); in data set [3], 3.9 µg/mL (≈ 12.2 µM); in [4], 0.976 µg/mL (≈ 3.05 µM); in data set [7], 1.95 µg/mL (≈ 6.09 µM); in data set [8], 0.244 µg/mL (≈ 0.762 µM). Moreover, it took 0.031 µg/mL (≈ 0.0968 µM) to inhibit growth in [9] (MIC). In data set [6] (1440 h, 60-day survivors), the minimal effective dose was determined as 40 mg/kg. In [6] (60-day survivors), the “Cure/Treat at Min. Curing Dose” value is 4/5.

Turning to `Nc1nc(N)c2c(ccc3c2ccn3-c2ccc([N+](=O)[O-])cn2)n1` [Example 82], the minimal inhibitory concentration (MIC) is 0.976 µg/mL (≈ 3.04 µM) in data set [1]; 3.9 µg/mL (≈ 12.1 µM) in [2]; over 250 µg/mL in data set [3]; over 250 µg/mL in [4]; over 250 µg/mL in data set [7]; 31.3 µg/mL (≈ 97.4 µM) in data set [8]. The compound further displayed an MIC in data set [9] of 0.031 µg/mL (≈ 0.0965 µM). In data set [6] (336 h, alive on day 14 considered cured, no 60-day data), the minimal effective dose turned out to be 160 mg/kg. Moreover, the “Cure/Treat at Min. Curing Dose” value in data set [6] (alive on day 14 considered cured) is 1/5.

Regarding `Cc1cc2c(ccc3nc(N)nc(N)c32)[nH]1` [Example 98, 8-Methyl-7H-pyrrolo[3,2-f]quinazoline-1,3-diamine], the MIC in data set [1] is 31.3 µg/mL (≈ 147 µM); in data set [2], 31.3 µg/mL (≈ 147 µM); in [3], 15.6 µg/mL (≈ 73.2 µM); in data set [4], 3.9 µg/mL (≈ 18.3 µM); in [7] it was 15.6 µg/mL (≈ 73.2 µM); in data set [8] it was 3.9 µg/mL (≈ 18.3 µM). This compound gave an MIC in data set [9] of 1.95 µg/mL (≈ 9.14 µM). For the same compound, the minimal effective dose in data set [6] (1440 h, 60-day survivors) turned out to be 160 mg/kg. Moreover, the “Cure/Treat at Min. Curing Dose” value in data set [6] (60-day survivors) is 3/5. In addition, the “ΔMST (increase in mean survival time)” value in [6] (dose 160 mg. per kg.) turned out to be 13.9.

For the origin of these results see US4118561A, “7-(Substituted)-7H-pyrrolo[3,2-f]quinazoline-1,3-diamines” (priority 1977, dated 1978).
